Measurements taken from patent US8637511B2, “Aminopyrimidines useful as kinase inhibitors” (Vertex Pharmaceuticals Incorporated, priority 2005, dated 2014).
Like-named read-outs stand apart in the source and are kept apart here.

What was measured:
Aurora-1 (Aurora B) = Aurora-1 (Aurora B) (Homo sapiens, UniProt Q96GD4); test: Aurora-1 (Aurora B) inhibition assay (radiometric); format: biochemical; conditions: read-out: Aurora B kinase Ki value
Description: An assay buffer solution was prepared which consisted of 25 mM HEPES (pH 7.5), 10 mM MgCl2, 0.1% BSA and 10% glycerol. […] To 22 μL of the Aurora-B solution, in a 96-well plate, was added 2 μl of a compound stock solution in DMSO and the mixture allowed to equilibrate for 10 minutes at 25° C. The enzyme reaction was initiated by the addition of 16 μl stock [γ-^33P]-ATP solution (˜20 nCi/μL) prepared in assay buffer, to a final assay concentration of 800 μM. The reaction was stopped after 3 hours by the addition of 16 μL 500 mM phosphoric acid and the levels of ^33P incorporation into the peptide substrate were determined by the following method.
A phosphocellulose 96-well plate (Millipore, Cat no. MAPHNOB50) was pre-treated with 100 μL of a 100 mM phosphoric acid prior to the addition of the enzyme reaction mixture (40 μL). The solution was left to soak on to the phosphocellulose membrane for 30 minutes and the plate subsequently washed four times with 200 μL of a 100 mM phosphoric acid. […] Levels of non-enzyme catalyzed background radioactivity were determined by adding 16 μL of the 500 mM phosphoric acid to control wells, containing all assay components (which acts to denature the enzyme), prior to the addition of the [γ-^33P]-ATP solution. Levels of enzyme catalyzed. ^33P incorporation were calculated by subtracting mean background counts from those measured at each inhibitor concentration. […] Ki values were calculated from initial rate data by non-linear regression using the Prism software package (Prism 3.0, Graphpad Software, San Diego, Calif.).

FLT-3 = target: T1, FLT-3 (Homo sapiens, UniProt P36888); test: FLT-3 inhibition assay, radiometric filter-binding; format: biochemical
T1 sequence (P36888 27-993): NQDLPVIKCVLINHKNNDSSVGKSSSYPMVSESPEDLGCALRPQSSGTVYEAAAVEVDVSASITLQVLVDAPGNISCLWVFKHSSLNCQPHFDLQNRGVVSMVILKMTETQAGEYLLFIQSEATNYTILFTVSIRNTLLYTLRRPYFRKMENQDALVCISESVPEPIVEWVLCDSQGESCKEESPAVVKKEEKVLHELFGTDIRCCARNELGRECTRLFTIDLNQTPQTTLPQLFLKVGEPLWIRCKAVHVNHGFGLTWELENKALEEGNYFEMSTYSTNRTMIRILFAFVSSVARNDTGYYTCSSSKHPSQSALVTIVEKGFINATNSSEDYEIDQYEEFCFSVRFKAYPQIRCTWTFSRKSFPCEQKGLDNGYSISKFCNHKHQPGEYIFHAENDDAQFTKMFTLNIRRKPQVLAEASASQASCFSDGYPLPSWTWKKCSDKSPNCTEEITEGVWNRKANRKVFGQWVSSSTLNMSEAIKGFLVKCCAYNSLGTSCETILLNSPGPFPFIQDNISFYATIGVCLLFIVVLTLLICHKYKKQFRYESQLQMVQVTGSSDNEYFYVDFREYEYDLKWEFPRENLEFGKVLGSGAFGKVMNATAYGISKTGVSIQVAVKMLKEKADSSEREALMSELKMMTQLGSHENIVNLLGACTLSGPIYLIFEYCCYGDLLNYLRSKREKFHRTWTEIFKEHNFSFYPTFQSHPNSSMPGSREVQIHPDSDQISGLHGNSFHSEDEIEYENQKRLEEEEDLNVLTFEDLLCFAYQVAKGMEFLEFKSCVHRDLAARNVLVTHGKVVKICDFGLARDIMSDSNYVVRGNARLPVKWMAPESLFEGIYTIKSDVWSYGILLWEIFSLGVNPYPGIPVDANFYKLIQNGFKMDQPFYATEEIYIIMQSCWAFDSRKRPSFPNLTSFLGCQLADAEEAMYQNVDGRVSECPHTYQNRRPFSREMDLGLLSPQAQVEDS
Description: This assay monitors the 33P incorporation into a substrate poly(Glu, Tyr) 4:1 (pE4Y). […] Final substrate concentrations in the assay were 90 μM ATP and 0.5 mg/ml pE4Y (both from Sigma Chemicals, St. Louis, Mo.). […] Reactions were carried out at room temperature.
Two assay solutions were prepared. Solution 1 contains 100 mM HEPES (pH 7.5), 10 mM MgCl2, 25 mM NaCl, 1 mg/ml pE4Y and […] (containing 0.3 mCi of [γ-33^P]ATP for each reaction). Solution 2 contains 100 mM HEPES (pH 7.5), 10 mM MgCl2, 25 mM NaCl, 2 mM DTT, 0.02% BSA and 3 nM FLT-3. The assay was run on a 96 well plate by mixing 50 μl each of Solution 1 and […] of the compounds of the present invention. The reaction was initiated with Solution 2. […] All of the reaction volume was then transferred to a filter plate and washed with 5% TCA by a Harvester 9600 from TOMTEC (Hamden, Conn.). The amount of ^33P incorporation into pE4y was analyzed by a Packard Top Count Microplate Scintillation Counter (Meriden, Conn.). The data was fitted using Prism software to get an IC50 or Ki.

JAK3 = target: T2, JAK3 (Homo sapiens, UniProt P52333); test: biochemical
T2 sequence (P52333 1-1124): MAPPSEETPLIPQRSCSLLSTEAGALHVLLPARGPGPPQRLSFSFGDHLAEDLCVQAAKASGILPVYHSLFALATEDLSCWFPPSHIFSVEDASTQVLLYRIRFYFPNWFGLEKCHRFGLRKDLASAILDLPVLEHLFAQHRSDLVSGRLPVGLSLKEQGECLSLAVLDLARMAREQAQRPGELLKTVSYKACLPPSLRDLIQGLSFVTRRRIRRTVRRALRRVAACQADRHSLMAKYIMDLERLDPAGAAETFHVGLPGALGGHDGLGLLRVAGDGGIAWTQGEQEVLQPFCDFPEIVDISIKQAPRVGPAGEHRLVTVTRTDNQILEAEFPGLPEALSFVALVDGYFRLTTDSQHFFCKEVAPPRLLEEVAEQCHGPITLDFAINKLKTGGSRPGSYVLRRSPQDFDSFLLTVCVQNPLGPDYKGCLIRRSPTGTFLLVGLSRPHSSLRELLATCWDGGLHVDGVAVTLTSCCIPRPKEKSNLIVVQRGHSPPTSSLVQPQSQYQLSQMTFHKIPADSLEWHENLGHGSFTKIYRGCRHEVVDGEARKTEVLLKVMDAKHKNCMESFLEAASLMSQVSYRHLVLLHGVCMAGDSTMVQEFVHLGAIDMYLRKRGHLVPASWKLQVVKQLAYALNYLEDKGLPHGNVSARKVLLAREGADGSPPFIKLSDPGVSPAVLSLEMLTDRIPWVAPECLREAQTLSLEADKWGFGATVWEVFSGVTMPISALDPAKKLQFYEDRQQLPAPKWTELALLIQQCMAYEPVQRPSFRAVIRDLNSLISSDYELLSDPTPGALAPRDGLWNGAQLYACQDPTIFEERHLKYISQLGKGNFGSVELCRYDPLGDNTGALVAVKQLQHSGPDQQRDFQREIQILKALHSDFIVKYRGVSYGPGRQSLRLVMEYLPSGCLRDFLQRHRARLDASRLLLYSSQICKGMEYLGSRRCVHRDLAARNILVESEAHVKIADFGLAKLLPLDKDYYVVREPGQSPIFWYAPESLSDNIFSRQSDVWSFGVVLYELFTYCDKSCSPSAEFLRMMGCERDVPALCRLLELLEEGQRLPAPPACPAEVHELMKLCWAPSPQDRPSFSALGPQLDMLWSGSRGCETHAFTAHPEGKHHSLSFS

Colo205 cells = test: Analysis of cell proliferation and viability; format: cell-based; conditions: Homo sapiens, COLO 205, Colo205 cells, read-out: IC50 value
Description: Colo205 cells were seeded in 96 well plates and serially diluted compound was added to the wells in duplicate. Control groups included untreated cells, the compound diluent (0.1% DMSO alone) and culture medium without cells.
To measure proliferation, 3 h prior to the end of the experiment 0.5 μCi of 3H thymidine was added to each well. Cells were then harvested and the incorporated radioactivity counted on a Wallac microplate beta-counter. Cell viability was assessed using Promega CellTiter 96AQ to measure MTS conversion. Dose response curves were calculated using either Prism 3.0 (GraphPad) or SoftMax Pro 4.3.1 LS (Molecular Devices) software.

Aurora-2 (Aurora A) = target: T3, Aurora-2 (Aurora A) (Homo sapiens, UniProt O14965); test: Aurora-2 (Aurora A) inhibition assay, coupled enzyme; format: biochemical; conditions: read-out: Aurora A kinase Ki value
T3 sequence (O14965 1-403): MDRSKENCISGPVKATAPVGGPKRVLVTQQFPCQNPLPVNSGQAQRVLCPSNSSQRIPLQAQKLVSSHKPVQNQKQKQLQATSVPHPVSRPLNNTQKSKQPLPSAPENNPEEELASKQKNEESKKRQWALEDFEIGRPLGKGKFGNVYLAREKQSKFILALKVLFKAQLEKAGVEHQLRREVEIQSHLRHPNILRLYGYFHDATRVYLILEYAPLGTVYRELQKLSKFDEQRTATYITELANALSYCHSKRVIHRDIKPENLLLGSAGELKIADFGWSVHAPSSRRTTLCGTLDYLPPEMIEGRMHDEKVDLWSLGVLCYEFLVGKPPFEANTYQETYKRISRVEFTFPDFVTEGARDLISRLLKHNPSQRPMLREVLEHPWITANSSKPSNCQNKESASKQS
Description: Assays were carried out in a mixture of 100 mM Hepes (pH7.5), 10 mM MgCl2, 1 mM DTT, 25 mM NaCl, 2.5 mM phosphoenolpyruvate, 300 μM NADH, 30 μg/ml pyruvate kinase and 10 μg/ml lactate dehydrogenase. […] Assays were carried out at 30° C. and in the presence of 40 nM Aurora-2.
The plate was preincubated for 10 minutes at 30° C. and the reaction initiated by addition of 10 μl of Aurora-2. Initial reaction rates were determined with a Molecular Devices SpectraMax Plus plate reader over a 10 minute time course. IC50 and Ki data were calculated from non-linear regression analysis using the Prism software package (GraphPad Prism version 3.0cx for Macintosh, GraphPad Software, San Diego Calif., USA).

Chain of Aurora-1 (Aurora B) (Q96GD4 whole entry): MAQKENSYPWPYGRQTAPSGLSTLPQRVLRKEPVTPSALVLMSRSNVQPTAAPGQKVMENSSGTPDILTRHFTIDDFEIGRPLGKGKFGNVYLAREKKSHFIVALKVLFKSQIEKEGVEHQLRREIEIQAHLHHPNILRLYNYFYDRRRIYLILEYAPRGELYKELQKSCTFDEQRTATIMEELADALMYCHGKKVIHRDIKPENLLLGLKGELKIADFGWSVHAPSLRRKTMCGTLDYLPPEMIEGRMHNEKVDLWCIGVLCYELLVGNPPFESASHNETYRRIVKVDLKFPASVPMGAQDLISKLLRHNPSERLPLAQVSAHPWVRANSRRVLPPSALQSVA

Ki (FLT-3; read-out: FLT-3 Ki value) [nM]	Ki (Aurora-2 (Aurora A)) [nM]	Compound	Ki (Aurora-1 (Aurora B)) [nM]	Ki (FLT-3) [nM]	Ki (JAK3) [nM]	IC50 (Colo205 cells; incubated for 96 hours) [nM]	IC50 (Colo205 cells; incubated for 72 hours) [nM]	Ki (JAK3; read-out: JAK3 Ki value) [nM]
–	–	Cc1cc(Nc2cc(N3CCC3)nc(Sc3ccc(N(C)C(=O)c4c(F)cccc4F)cc3)n2)n[nH]1 [Compound 11]	50 to 2000	150 to 1000	10 to 500	50 to 1000	–	–
–	–	Cc1cc(Nc2cc(CN3CCC3)nc(Sc3ccc(NC(=O)c4ccccc4C(F)(F)F)cc3)n2)[nH]n1 [Compound 132]	10 to 50	150 to 1000	500 to 2000	50 to 1000	> 200	–
150 to 1000	5 to 200	Cc1cc(Nc2cc(N3CCC3)nc(Sc3ccc(NC(=O)c4ccc(CN5CCC5)cc4)cc3)n2)[nH]n1 [Compound 139]	50 to 2000	–	–	50 to 1000	–	–
150 to 1000	1 to 5	Cc1cc(Nc2cc(N3CCC3)nc(Sc3ccc(NC(=O)C4(C(F)(F)F)CC4)cc3)n2)[nH]n1 [Compound 142]	≤ 10	–	–	–	30 to 200	–
–	–	Cc1cc(Nc2cc(N3CC(F)(C4CC4)C3)nc(Sc3ccc4ccn(CC(F)(F)F)c(=O)c4c3)n2)[nH]n1 [Compound 189]	50 to 2000	50 to 150	–	–	> 200	10 to 500
150 to 1000	1 to 5	Cc1cc(Nc2cc(N3CC(F)(C4CC4)C3)nc(Sc3ccc(NC(=O)[C@H]4CCCN4C(C)C)cc3)n2)[nH]n1 [Compound 193]	50 to 2000	–	–	–	> 200	–
–	–	Cc1cc(Nc2cc(N3CC(N4CCOCC4)C3)nc(Sc3ccc4nc(C(F)(F)F)n(C)c4c3)n2)[nH]n1 [Compound 195]	≤ 10	150 to 1000	10 to 500	–	30 to 200	–
